Data reported in patent publication US11590116B2 (THERAVANCE BIOPHARMA R&D IP, LLC, priority 2019, dated 2023).

Experiments:
[1] = system: TGF-β-stimulated SMAD3 phosphorylation in BEAS-2B cells; assay: Cellular ALK5 potency assay, inhibition of TGF-β stimulated pSMAD3 formation in BEAS-2B cells; type: cell-based; details: Homo sapiens; inhibition of TGF-β stimulated pSMAD3 formation, BEAS-2B cells; read-out: BEAS2B pIC50 (converted)
How it was run: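 BEAS-2B human lung epithelial cells, seeded overnight, were pre-treated with compound in HBSS/25 mM HEPES/1% BSA for 1 h at 37 °C, then stimulated with TGF-β (final 10 ng/mL) for 30 min. Lysates were assayed for pSMAD3 by AlphaLISA; pIC50 came from dose-dependent signal change versus TGF-β-stimulated untreated cells.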

[2] = target: T1, recombinant human ALK5 (TGF-βR1) protein (Homo sapiens, UniProt P36897); assay: Biochemical ALK5 (TGF-βR1) assay to measure pKi (LANCE Ultra ULight kinase assay); details: apparent pKi from pIC50 by Cheng-Prusoff, read-out: ALK5 pKi (converted)
T1 construct: purchased Life Technologies PR9075A
T1 sequence (P36897 34-503): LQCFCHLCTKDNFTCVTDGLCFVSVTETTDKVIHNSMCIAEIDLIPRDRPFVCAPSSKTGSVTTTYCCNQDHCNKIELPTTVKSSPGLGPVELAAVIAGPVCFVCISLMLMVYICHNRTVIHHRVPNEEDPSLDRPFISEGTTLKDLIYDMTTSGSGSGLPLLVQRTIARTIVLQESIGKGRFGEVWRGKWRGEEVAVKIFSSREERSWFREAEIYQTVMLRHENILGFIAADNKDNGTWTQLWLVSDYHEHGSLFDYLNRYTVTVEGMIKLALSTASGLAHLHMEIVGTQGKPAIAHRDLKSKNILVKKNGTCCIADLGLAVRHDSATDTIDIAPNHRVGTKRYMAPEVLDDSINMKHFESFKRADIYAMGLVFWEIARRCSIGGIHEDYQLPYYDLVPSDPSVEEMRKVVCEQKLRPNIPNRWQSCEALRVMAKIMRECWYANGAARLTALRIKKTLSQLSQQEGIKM
How it was run: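 Compounds (10 μM to 25 pM) preincubated 60 minutes at room temperature with enzyme, then reaction run 60 minutes at 37° C with ATP added as 125 μM (5× final). Stopped with EDTA plus Eu-anti-phospho-Topoisomerase 2-alpha (Thr1342) antibody, TR-FRET read at 665 nm; pIC50 converted to pKi via Cheng-Prusoff.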

Compound | IC50 [1] | Ki [2]
Cc1cccc(-c2[nH]cnc2-c2ccc3ncc(C4=CCCNC4)cc3c2)n1 [Compound 259, 6-[5-(6-methyl-2-pyridyl)-1H-imidazol-4-yl]-3-(1,2,3,6-tetrahydropyridin-5-yl)quinoline] | < 20 nM | 0.0398 to 0.316 nM
Cc1cccc(-c2n[nH]cc2-c2ccc3ncc(N4CC5CNCC54)cc3n2)n1 (centres unmarked) [Compound 260, 7-(3,6-diazabicyclo[3.2.0]heptan-6-yl)-2-[3-(6-methyl-2-pyridyl)-1H-pyrazol-4-yl]-1,5-naphthyridine] | 200 to 1260 nM | 0.398 to 3.16 nM
Cc1cccc(-c2n[nH]cc2-c2ccc3ncc(CCCN4CCOCC4)cc3n2)n1 [Compound 261, 4-[3-[6-[3-(6-methyl-2-pyridyl)-1H-pyrazol-4-yl]-1,5-naphthyridin-3-yl]propyl]morpholine] | 25.1 to 158 nM | 0.0398 to 0.316 nM
CNCCN1CCn2cc(-c3cnc4ccc(-c5c[nH]nc5-c5cccc(C)n5)nc4c3)nc2C1 [Compound 262, N-methyl-2-[2-[6-[3-(6-methyl-2-pyridyl)-1H-pyrazol-4-yl]-1,5-naphthyridin-3-yl]-6,8-dihydro-5H-imidazo[1,2-a]pyrazin-7-yl]ethanamine] | 200 to 1260 nM | 0.0398 to 0.316 nM
Cc1nc(-c2n[nH]cc2-c2ccc3ncc(-c4nnn5c4NCCC5)cc3n2)ccc1F [Compound 263, 2-[3-(5-fluoro-6-methyl-2-pyridyl)-1H-pyrazol-4-yl]-7-(4,5,6,7-tetrahydrotriazolo[1,5-a]pyrimidin-3-yl)-1,5-naphthyridine] | 25.1 to 158 nM | 0.0398 to 0.316 nM
CNC1CCN(c2cnc3ccc(-c4c[nH]nc4-c4ccc(F)c(C)n4)nc3c2)CC1 [Compound 264, 1-[6-[3-(5-fluoro-6-methyl-2-pyridyl)-1H-pyrazol-4-yl]-1,5-naphthyridin-3-yl]-N-methyl-piperidin-4-amine] | 25.1 to 158 nM | < 0.0316 nM
Cc1cccc(-c2n[nH]cc2-c2ccc3ncc(-c4ccc(C5CCCN(C(C)C)C5)cc4)cc3n2)n1 (centres unmarked) [Compound 265, 7-[4-(1-isopropyl-3-piperidyl)phenyl]-2-[3-(6-methyl-2-pyridyl)-1H-pyrazol-4-yl]-1,5-naphthyridine] | 200 to 1260 nM | 0.0398 to 0.316 nM
Cc1cccc(-c2n[nH]cc2-c2ccc3ncc(N4CCN(CC(F)(F)F)CC4)cc3n2)n1 [Compound 266, 2-[3-(6-methyl-2-pyridyl)-1H-pyrazol-4-yl]-7-[4-(2,2,2-trifluoroethyl)piperazin-1-yl]-1,5-naphthyridine] | 25.1 to 158 nM | 0.0398 to 0.316 nM
Cc1cccc(-c2n[nH]cc2-c2ccc3ncc(N4CCn5nc(C6=CCC(N)CC6)nc5C4)cc3n2)n1 (centres unmarked) [Compound 268, 4-[7-[6-[3-(6-methyl-2-pyridyl)-1H-pyrazol-4-yl]-1,5-naphthyridin-3-yl]-6,8-dihydro-5H-[1,2,4]triazolo[1,5-a]pyrazin-2-yl]cyclohex-3-en-1-amine] | 200 to 1260 nM | 0.0398 to 0.316 nM
Cc1cccc(-c2n[nH]cc2-c2ccc3ncc(NCC4CNCCN4)cc3n2)n1 (centres unmarked) [Compound 269, 6-[3-(6-methyl-2-pyridyl)-1H-pyrazol-4-yl]-N-(piperazin-2-ylmethyl)-1,5-naphthyridin-3-amine] | 1580 to 10000 nM | 0.0398 to 0.316 nM
Cc1cccc(-c2n[nH]cc2-c2ccc3ncc(N4CCC[C@@H]4CO)cc3n2)n1 [Compound 270, [(2R)-1-[6-[3-(6-methyl-2-pyridyl)-1H-pyrazol-4-yl]-1,5-naphthyridin-3-yl]pyrrolidin-2-yl]methanol] | 25.1 to 158 nM | 0.0398 to 0.316 nM
Cc1cccc(-c2n[nH]cc2-c2ccc3ncc(N4CCNC[C@H]4C)cc3n2)n1 [Compound 271, 7-[(2R)-2-methylpiperazin-1-yl]-2-[3-(6-methyl-2-pyridyl)-1H-pyrazol-4-yl]-1,5-naphthyridine] | 25.1 to 158 nM | 0.0398 to 0.316 nM
Cc1cccc(-c2nc3ccccn3c2-c2ccc3ncc(N4CCC(N(C)C)C4)cc3c2)n1 (centres unmarked) [Compound 272, N,N-dimethyl-1-[6-[2-(6-methyl-2-pyridyl)imidazo[1,2-a]pyridin-3-yl]-3-quinolyl]pyrrolidin-3-amine] | 25.1 to 158 nM | < 0.0316 nM
Cc1cccc(-c2[nH]cnc2-c2ccc3ncc(-c4ccc(C(=O)O[C@@H]5CCN(C)C5)nc4)cc3c2)n1 [Compound 273, (R)-1-methylpyrrolidin-3-yl 5-(6-(5-(6-methylpyridin-2-yl)-1H-imidazol-4-yl)quinolin-3-yl)picolinate] | 25.1 to 158 nM | < 0.0316 nM
Cc1cccc(-c2n[nH]cc2-c2ccc3ncc(N4CCCN(CC5CCCN5)CC4)cc3n2)n1 (centres unmarked) [Compound 274, 2-[3-(6-methyl-2-pyridyl)-1H-pyrazol-4-yl]-7-[4-(pyrrolidin-2-ylmethyl)-1,4-diazepan-1-yl]-1,5-naphthyridine] | 200 to 1260 nM | 0.0398 to 0.316 nM
Cc1cccc(-c2[nH]cnc2-c2ccc3ncc(-c4ccc5c(c4)CCC5N)cc3c2)n1 (centres unmarked) [Compound 275, 5-[6-[5-(6-methyl-2-pyridyl)-1H-imidazol-4-yl]-3-quinolyl]indan-1-amine] | 25.1 to 158 nM | 0.0398 to 0.316 nM
CNCCn1ccc(-c2cnc3ccc(-c4c[nH]nc4-c4cccc(C(C)C)n4)nc3c2)n1 [Compound 276, 2-[3-[6-[3-(6-isopropyl-2-pyridyl)-1H-pyrazol-4-yl]-1,5-naphthyridin-3-yl]pyrazol-1-yl]-N-methyl-ethanamine] | 25.1 to 158 nM | < 0.0316 nM
Cc1cccc(-c2[nH]ncc2-c2ccc3ncc(C(=O)OCCN4CCNCC4)cc3n2)n1 [Compound 277, 2-piperazin-1-ylethyl 6-[5-(6-methyl-2-pyridyl)-1H-pyrazol-4-yl]-1,5-naphthyridine-3-carboxylate] | 200 to 1260 nM | 0.0398 to 0.316 nM
Cc1cccc(-c2[nH]cnc2-c2ccc3ncc(-c4ccc5c(c4)CCNC5)cc3c2)n1 [Compound 278, 6-[5-(6-methyl-2-pyridyl)-1H-imidazol-4-yl]-3-(1,2,3,4-tetrahydroisoquinolin-6-yl)quinoline] | < 20 nM | 0.0398 to 0.316 nM
Cc1cccc(-c2n[nH]cc2-c2ccc3ncc(N4CC(CN)C4)cc3n2)n1 [Compound 279, [1-[6-[3-(6-methyl-2-pyridyl)-1H-pyrazol-4-yl]-1,5-naphthyridin-3-yl]azetidin-3-yl]methanamine] | 25.1 to 158 nM | 0.0398 to 0.316 nM
Cc1cccc(-c2[nH]cnc2-c2ccc3ncc(N4CCCC5(CNC5)C4)cc3c2)n1 [Compound 280, 3-(2,6-diazaspiro[3.5]nonan-6-yl)-6-[5-(6-methyl-2-pyridyl)-1H-imidazol-4-yl]quinoline] | 200 to 1260 nM | 0.0398 to 0.316 nM
Cc1cccc(-c2n[nH]cc2-c2ccc3ncc(N4CCN(CCN)CC4)cc3n2)n1 [Compound 281, 2-[4-[6-[3-(6-methyl-2-pyridyl)-1H-pyrazol-4-yl]-1,5-naphthyridin-3-yl]piperazin-1-yl]ethanamine] | 200 to 1260 nM | < 0.0316 nM
Cc1cccc(-c2n[nH]cc2-c2ccc3ncc(N4CCC(O)CC4)cc3n2)n1 [Compound 282, 1-[6-[3-(6-methyl-2-pyridyl)-1H-pyrazol-4-yl]-1,5-naphthyridin-3-yl]piperidin-4-ol] | < 20 nM | < 0.0316 nM
Cc1cccc(-c2n[nH]cc2-c2ccc3ncc(N4CC(C)N(CCN)C(C)C4)cc3n2)n1 (centres unmarked) [Compound 283, 2-[2,6-dimethyl-4-[6-[3-(6-methyl-2-pyridyl)-1H-pyrazol-4-yl]-1,5-naphthyridin-3-yl]piperazin-1-yl]ethanamine] | 200 to 1260 nM | 0.0398 to 0.316 nM
Cc1nc(-c2n[nH]cc2-c2ccc3ncc(-c4ncn5c4NCC5)cc3n2)ccc1F [Compound 284, 7-(2,3-dihydro-1H-imidazo[1,5-a]imidazol-7-yl)-2-[3-(5-fluoro-6-methyl-2-pyridyl)-1H-pyrazol-4-yl]-1,5-naphthyridine] | 25.1 to 158 nM | 0.0398 to 0.316 nM
Cc1cccc(-c2n[nH]cc2-c2ccc3ncc(NC(=O)CCN4CCOCC4)cc3n2)n1 [Compound 286, N-[6-[3-(6-methyl-2-pyridyl)-1H-pyrazol-4-yl]-1,5-naphthyridin-3-yl]-3-morpholino-propanamide] | 25.1 to 158 nM | 0.0398 to 0.316 nM
Cc1cccc(-c2nc3ccccn3c2-c2ccc3ncc(N4CCNCC4)cc3c2)n1 [Compound 287, 6-[2-(6-methyl-2-pyridyl)imidazo[1,2-a]pyridin-3-yl]-3-piperazin-1-yl-quinoline] | 25.1 to 158 nM | 0.0398 to 0.316 nM
Cc1cccc(-c2nnn(Cc3ccccc3)c2-c2ccc3ncc(-c4c[nH]nc4C(F)(F)F)cc3n2)n1 [Compound 288, 2-[3-benzyl-5-(6-methyl-2-pyridyl)triazol-4-yl]-7-[3-(trifluoromethyl)-1H-pyrazol-4-yl]-1,5-naphthyridine] | 25.1 to 158 nM | 0.398 to 3.16 nM
